Test results as given in US20260132158A1, “PHENYL OXY AMIDE KINASE INHIBITORS” (THE TRANSLATIONAL GENOMICS RESEARCH INSTITUTE, priority 2022, published 2026).

Target: T1, RON Kinase (Homo sapiens, UniProt Q04912)
T1 construct: purchased Promega V8071
Assay: RON Kinase ADP Glo Assay
Format: biochemical
Settings: ratio cMET IC50 / RON IC50
Method: RON Kinase ADP Glo Assay • Assay Buffer: 40 mM Tris-HCl, pH7.5, 20 mM MgCl2, 0.1 mg/mL BSA • RON Kinase+ADP-Glo™ Assay (Promega #: V8071) • Substrate: […] Axltide • Enzyme: 100 ng/μL RON Kinase • ATP: 10 mM • ADP-Glo™ Reagent • Kinase Detection Reagent • 384-well white assay plates Kinase assay was done by following instructions from the kit. Briefly, a ten-point serial dilution of compound was prepared at 5× in assay buffer with the final assay concentrations starting at 300 nM, 100 nM, 30 nM, 10 nM . . . 0 nM. Enzyme, substrate, and ATP were used at 25 ng, 2000 ng, and 25 µM, respectively. The assay plate was set up by mixing the components in a total reaction volume of 10 μL per well. The plate was centrifuged gently for 10 seconds and incubated at room temperature (RT) for 60 minutes in the dark. The ADP-Glo Reagent and kinase detection reagent were added and incubated as recommended. The reaction was quantified by measuring luminescence on the Perkin Elmer Envision plate reader.

T1 sequence (Q04912 25-1400): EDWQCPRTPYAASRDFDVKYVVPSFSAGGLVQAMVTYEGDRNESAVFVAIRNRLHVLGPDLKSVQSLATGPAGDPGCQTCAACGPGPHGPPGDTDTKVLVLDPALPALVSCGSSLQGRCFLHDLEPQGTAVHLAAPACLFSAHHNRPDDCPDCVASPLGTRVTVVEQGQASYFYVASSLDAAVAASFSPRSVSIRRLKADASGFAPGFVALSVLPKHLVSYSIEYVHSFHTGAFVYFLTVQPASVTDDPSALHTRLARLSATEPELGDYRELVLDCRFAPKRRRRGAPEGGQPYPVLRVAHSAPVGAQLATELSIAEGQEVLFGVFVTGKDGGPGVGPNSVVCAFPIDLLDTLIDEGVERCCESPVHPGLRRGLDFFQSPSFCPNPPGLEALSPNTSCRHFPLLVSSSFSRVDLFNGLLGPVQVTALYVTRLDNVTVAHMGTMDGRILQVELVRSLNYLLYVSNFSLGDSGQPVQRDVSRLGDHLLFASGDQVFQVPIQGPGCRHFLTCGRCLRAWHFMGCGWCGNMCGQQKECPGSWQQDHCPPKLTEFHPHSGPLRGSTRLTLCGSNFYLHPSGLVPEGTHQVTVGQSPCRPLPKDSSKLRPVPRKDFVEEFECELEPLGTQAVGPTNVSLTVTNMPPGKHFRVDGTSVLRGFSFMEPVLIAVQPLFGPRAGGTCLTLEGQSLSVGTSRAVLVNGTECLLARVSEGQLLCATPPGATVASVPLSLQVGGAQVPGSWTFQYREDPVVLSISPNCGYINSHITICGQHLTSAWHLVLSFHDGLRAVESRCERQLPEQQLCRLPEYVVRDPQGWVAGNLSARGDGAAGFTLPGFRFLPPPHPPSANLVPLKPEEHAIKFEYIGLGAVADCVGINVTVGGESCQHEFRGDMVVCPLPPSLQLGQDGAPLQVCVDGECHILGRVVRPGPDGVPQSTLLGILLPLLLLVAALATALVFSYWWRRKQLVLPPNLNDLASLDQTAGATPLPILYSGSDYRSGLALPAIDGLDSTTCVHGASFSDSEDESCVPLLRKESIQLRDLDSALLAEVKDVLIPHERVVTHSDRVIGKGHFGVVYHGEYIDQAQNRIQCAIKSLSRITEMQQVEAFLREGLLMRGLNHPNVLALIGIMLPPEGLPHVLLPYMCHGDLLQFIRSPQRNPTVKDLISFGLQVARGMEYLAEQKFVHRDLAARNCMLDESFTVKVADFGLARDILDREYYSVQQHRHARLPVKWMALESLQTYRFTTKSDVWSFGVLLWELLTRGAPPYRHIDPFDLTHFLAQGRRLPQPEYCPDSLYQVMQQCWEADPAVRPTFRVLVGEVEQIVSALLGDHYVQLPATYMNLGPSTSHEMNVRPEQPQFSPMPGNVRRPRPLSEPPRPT

Q: How did the “Fold Selectivity (cMET/RON)” value turn out when `CP(C)(=O)c1c(Oc2ccc(NC(=O)c3cnn(-c4ccc(F)cc4)c3C(F)(F)F)cc2F)ccnc1N` [Compound 17, N-(4-((2-amino-3-(dimethylphosphoryl)pyridin-4-yl)oxy)-3-fluorophenyl)-1-(4-fluorophenyl)-5-(trifluoromethyl)-1H-pyrazole-4-carboxamide] was run?
A: +++ (represents a value greater than 3 up to 50)
